From patent publication US20250296959A1, “B7-H3 TARGETING PEPTIDES AND CONSTRUCTS THEREOF” (Mariana Oncology Inc., priority 2024, published 2025)
Starred links: 1 amine or outer side, 2 acyl side, 3 side chain; linkers in the order of their positions; H or OH if unused. Positions of bridges follow the written chain, without caps; N, C: chain ends. Non-standard residues stand in square brackets, D forms with d. Residues, ends and D or L forms follow the SMILES beside them. Groups on a side chain read outwards from the residue. *: point of attachment. Ala(piperidin-4-yl) = O=C([C@H](CC1CCN([*:3])CC1)N[*:1])[*:2]; Phe(3-CH2NH2) = O=C([C@H](Cc1cccc(CN[*:3])c1)N[*:1])[*:2]; DOTA = O=C(O)CN1CCN(CC(=O)O)CCN(CC(=O)*)CCN(CC(=O)O)CC1; Phe(4-NHCONH2) = NC(=O)Nc1ccc(C[C@H](N)C(=O)O)cc1; Trp(5-F) = N[C@@H](Cc1c[nH]c2ccc(F)cc12)C(=O)O; X1 = C[C@@H](c1ccccc1)[C@H](N[*:1])C(=O)[*:2]; γGlu = O=C(O)[C@H](CCC(=O)[*:2])N[*:1]; 1Nal = N[C@@H](Cc1cccc2ccccc12)C(=O)O; Ala(4-THP) = N[C@@H](CC1CCOCC1)C(=O)O; Gly(4-THP) = N[C@H](C(=O)O)C1CCOCC1; N(CH2CH2COOH)Gly = O=C(O)CCNCC(=O)O; Val(3-OH) = CC(C)(O)[C@H](N)C(=O)O; mTyr = N[C@@H](Cc1cccc(O)c1)C(=O)O; 4Pal = N[C@@H](Cc1ccncc1)C(=O)O; Aad = N[C@@H](CCCC(=O)O)C(=O)O; PEG4 = NCCOCCOCCOCCOCCC(=O)O; Tle = CC(C)(C)[C@H](N)C(=O)O; hLeu = CC(C)CC[C@H](N)C(=O)O; NMeS = CN[C@@H](CO)C(=O)O; hSer = N[C@@H](CCO)C(=O)O; Nle = CCCC[C@H](N)C(=O)O

Biological target: T1, human 4lg B7-H3 (Homo sapiens, UniProt Q5ZPR3)
T1 sequence (Q5ZPR3 29-534): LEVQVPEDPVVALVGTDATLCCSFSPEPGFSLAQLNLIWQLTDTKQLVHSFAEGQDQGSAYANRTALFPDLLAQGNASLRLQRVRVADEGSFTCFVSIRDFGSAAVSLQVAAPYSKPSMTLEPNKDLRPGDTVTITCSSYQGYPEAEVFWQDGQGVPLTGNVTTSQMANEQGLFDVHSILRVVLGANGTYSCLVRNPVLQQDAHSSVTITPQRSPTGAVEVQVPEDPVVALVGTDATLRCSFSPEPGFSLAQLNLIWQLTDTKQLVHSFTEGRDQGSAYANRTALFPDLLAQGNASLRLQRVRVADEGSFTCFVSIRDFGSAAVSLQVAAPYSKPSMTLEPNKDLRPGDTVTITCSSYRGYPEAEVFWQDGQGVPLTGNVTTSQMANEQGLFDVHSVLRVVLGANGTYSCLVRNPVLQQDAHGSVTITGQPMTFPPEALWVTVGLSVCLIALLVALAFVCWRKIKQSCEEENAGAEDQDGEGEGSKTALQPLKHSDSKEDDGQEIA
Experiment: Affinity determination by surface plasmon resonance (SPR) to 4Ig B7-H3
Settings: 4Ig B7-H3

[1] = SPR KD—37° C., 37° C. flow cell temperature
[2] = SPR KD—25° C., 25° C. flow cell temperature

| SMILES | Kd [1] [nM] | Kd [2] [nM] |
| --- | --- | --- |
| CCCC[C@H](NC(C)=O)C(=O)N[C@@H](Cc1ccc(O)cc1)C(=O)N[C@H]1CSSC[C@@H](C(=O)N[C@@H](Cc2c[nH]c3ccccc23)C(=O)N[C@@H](Cc2ccccc2)C(N)=O)NC(=O)[C@H](Cc2ccc(O)cc2)NC(=O)[C@H](C(C)C)NC(=O)[C@H](CC(=O)O)NC(=O)[C@H](Cc2ccc(O)cc2)NC(=O)[C@H](CCCCN)NC(=O)CN(CCC(=O)O)C(=O)[C@H](C(C)C)NC1=O [compound 53, Ac-Nle-Y-C-V-N(CH2)2COOHGly-K-Y-D-V-Y-C-W-F-CONH2] (Ac-[Nle]YCV[N(CH2CH2COOH)Gly]KYDVYCWF-NH2; disulfide 3-11) | 100 to 300 |  |
| CC(=O)N[C@@H](CCC(C)C)C(=O)N[C@@H](Cc1ccc(O)cc1)C(=O)N[C@H]1CSSC[C@@H](C(=O)N[C@@H](Cc2c[nH]c3ccc(F)cc23)C(=O)N[C@@H](Cc2ccccc2)C(=O)N2CCC[C@H]2C(=O)N[C@H](CCCCNC(=O)CN2CCN(CC(=O)O)CCN(CC(=O)O)CCN(CC(=O)O)CC2)C(=O)O)NC(=O)[C@H](Cc2ccc(O)cc2)NC(=O)[C@H](C(C)C)NC(=O)[C@H](CC(=O)O)NC(=O)[C@H](CC2CCOCC2)NC(=O)[C@H](CCO)NC(=O)CNC(=O)[C@H](C(C)(C)C)NC1=O [compound 311, Ac-hLeu-Y-C-Tbg-G-hSer-ThpA-D-V-Y-C-5FW-F-Pro-dLys(DOTA)-COOH] (Ac-[hLeu]YC[Tle]G[hSer][Ala(4-THP)]DVYC[Trp(5-F)]FP[dK](DOTA)-OH; disulfide 3-11) |  | 1 to 10 |
| COc1ccc(C[C@@H]2NC(=O)[C@H](C(C)C)NC(=O)[C@H](CC(=O)O)NC(=O)[C@H](Cc3ccc(O)cc3)NC(=O)[C@H](CCCCN)NC(=O)CNC(=O)[C@H](C(C)C)NC(=O)[C@@H](NC(=O)[C@H](Cc3ccc(O)cc3)NC(=O)[C@H](CCC(C)C)NC(C)=O)CSSC[C@@H](C(=O)N[C@@H](Cc3c[nH]c4ccc(F)cc34)C(=O)N[C@@H](Cc3ccccc3)C(=O)N[C@H](C(=O)N[C@H](CCCCNC(=O)CN3CCN(CC(=O)O)CCN(CC(=O)O)CCN(CC(=O)O)CC3)C(N)=O)[C@@H](C)O)NC2=O)cc1 [compound 171, Ac-hLeu-Y-C-V-G-K-Y-D-V-OMeTyr-C-5FW-F-Thr-dLys(DOTA)-CONH2] (Ac-[hLeu]YCVGKYDVY(Me)C[Trp(5-F)]FT[dK](DOTA)-NH2; disulfide 3-11) |  | < 1 |
| CCCC[C@H](NC(C)=O)C(=O)N[C@@H](Cc1ccc(O)cc1)C(=O)N[C@H]1CSSC[C@@H](C(=O)N[C@@H](Cc2c[nH]c3ccccc23)C(=O)N[C@@H](Cc2ccccc2)C(=O)N[C@H](C(=O)N[C@H](CCCCNC(=O)CN2CCN(CC(=O)O)CCN(CC(=O)O)CCN(CC(=O)O)CC2)C(=O)O)[C@@H](C)O)NC(=O)[C@H](Cc2ccc(O)cc2)NC(=O)[C@H](C(C)C)NC(=O)[C@H](CC(=O)O)NC(=O)[C@H](CCCC(=O)O)NC(=O)[C@H](CCCCN)NC(=O)CNC(=O)[C@H](C(C)C)NC1=O [compound 116, Ac-Nle-Y-C-V-G-K-HomoGlu-D-V-Y-C-W-F-Thr-dLys(DOTA)-COOH] (Ac-[Nle]YCVGK[Aad]DVYCWFT[dK](DOTA)-OH; disulfide 3-11) |  | 10 to 100 |
| CC(=O)N[C@@H](CCC(C)C)C(=O)N[C@@H](Cc1ccc(O)cc1)C(=O)N[C@H]1CSSC[C@@H](C(=O)N[C@@H](Cc2cccc3ccccc23)C(=O)N[C@@H](Cc2ccccc2)C(=O)N2CCC[C@H]2C(N)=O)NC(=O)[C@H](Cc2ccc(O)cc2)NC(=O)[C@H](C(C)C)NC(=O)[C@H](CC(=O)O)NC(=O)[C@H](Cc2cccc(CNC(=O)CC[C@H](NC(=O)CN3CCN(CC(=O)O)CCN(CC(=O)O)CCN(CC(=O)O)CC3)C(=O)O)c2)NC(=O)[C@H](CCCCN)NC(=O)CNC(=O)[C@H](C(C)(C)C)NC1=O [compound 254, Ac-hLeu-Y-C-Tbg-G-K-MAF(gE-DOTA)-D-V-Y-C-1Nal-F-Pro-CONH2] (Ac-[hLeu]YC[Tle]GK[Phe(3-CH2NH2)]([γGlu-DOTA])DVYC[1Nal]FP-NH2; disulfide 3-11) |  | 1 to 10 |
| CCCC[C@H](NC(C)=O)C(=O)N[C@@H](Cc1ccc(O)cc1)C(=O)N[C@H]1CSSC[C@@H](C(=O)N[C@@H](Cc2c[nH]c3ccccc23)C(=O)N[C@@H](Cc2ccccc2)C(=O)N[C@@H](CC2CCNCC2)C(=O)N[C@H](CCCCNC(=O)CN2CCN(CC(=O)O)CCN(CC(=O)O)CCN(CC(=O)O)CC2)C(N)=O)NC(=O)[C@H](Cc2ccc(O)cc2)NC(=O)[C@H](C(C)C)NC(=O)[C@H](CC(=O)O)NC(=O)[C@H](Cc2ccc(O)cc2)NC(=O)[C@H](CCCCN)NC(=O)CNC(=O)[C@H](C(C)C)NC1=O [compound 89, Ac-Nle-Y-C-V-G-K-Y-D-V-Y-C-W-F-4PipAla-dLys(DOTA)-CONH2] (Ac-[Nle]YCVGKYDVYCWF[Ala(piperidin-4-yl)][dK](DOTA)-NH2; disulfide 3-11) |  | 10 to 100 |
| CC(=O)N[C@@H](CCC(C)C)C(=O)N[C@@H](Cc1ccc(O)cc1)C(=O)N[C@H]1CSSC[C@@H](C(=O)N[C@@H](Cc2c[nH]c3ccc(F)cc23)C(=O)N[C@@H](Cc2ccccc2)C(=O)N[C@H](C(=O)N[C@H](CO)C(=O)O)C(C)(C)O)NC(=O)[C@H](Cc2ccc(O)cc2)NC(=O)[C@H](C(C)C)NC(=O)[C@H](CC(=O)O)NC(=O)[C@H](CC2CCOCC2)NC(=O)[C@H](CC2CCN(C(=O)CCOCCOCCOCCOCCNC(=O)CN3CCN(CC(=O)O)CCN(CC(=O)O)CCN(CC(=O)O)CC3)CC2)NC(=O)CNC(=O)[C@H](C(C)(C)C)NC1=O [compound 490, Ac-hLeu-Y-C-Tbg-G-Pip(PEG4-DOTA)Ala-ThpA-D-V-Y-C-5FW-F-hydroxyVal-dSer-COOH] (Ac-[hLeu]YC[Tle]G[Ala(piperidin-4-yl)]([PEG4-DOTA])[Ala(4-THP)]DVYC[Trp(5-F)]F[Val(3-OH)][dS]-OH; disulfide 3-11) | < 1 |  |
| CCCC[C@@H]1NC(=O)[C@H](C(C)C)NC(=O)[C@H](CC(=O)O)NC(=O)[C@H](Cc2ccncc2)NC(=O)[C@H](CCCCN)NC(=O)CNC(=O)[C@H](C(C)(C)C)NC(=O)[C@@H](NC(=O)[C@H](Cc2ccc(O)cc2)NC(=O)[C@H](CCC(C)C)NC(C)=O)CSSC[C@@H](C(=O)N[C@@H](Cc2cccc3ccccc23)C(=O)N[C@@H](Cc2ccccc2)C(=O)N(C)[C@@H](CO)C(=O)N[C@H](CCCCNC(=O)CN2CCN(CC(=O)O)CCN(CC(=O)O)CCN(CC(=O)O)CC2)C(N)=O)NC1=O [compound 225, Ac-hLeu-Y-C-Tbg-G-K-4PyA-D-V-Nle-C-1Nal-F-NMeSer-dLys(DOTA)-CONH2] (Ac-[hLeu]YC[Tle]GK[4Pal]DV[Nle]C[1Nal]F[NMeS][dK](DOTA)-NH2; disulfide 3-11) |  | 10 to 100 |
| CC(=O)N[C@@H](CCC(C)C)C(=O)N[C@@H](Cc1ccc(O)cc1)C(=O)N[C@H]1CSSC[C@@H](C(=O)N[C@@H](Cc2c[nH]c3ccc(F)cc23)C(=O)N[C@H](C(=O)N[C@H](C(=O)N[C@H](CCCCNC(=O)CN2CCN(CC(=O)O)CCN(CC(=O)O)CCN(CC(=O)O)CC2)C(=O)O)C(C)(C)O)[C@@H](C)c2ccccc2)NC(=O)[C@H](Cc2ccc(NC(N)=O)cc2)NC(=O)[C@H](C(C)C)NC(=O)[C@H](CC(=O)O)NC(=O)[C@H](CC2CCOCC2)NC(=O)[C@H](CC2CCNCC2)NC(=O)CNC(=O)[C@H](C(C)(C)C)NC1=O [compound 506, Ac-hLeu-Y-C-Tbg-G-PipAla-ThpA-D-V-Aph(Cbm)-C-5FW-[(2S, 3S)beta-Me-Phe]-hydroxyVal-dLys(DOTA)-COOH] (Ac-[hLeu]YC[Tle]G[Ala(piperidin-4-yl)][Ala(4-THP)]DV[Phe(4-NHCONH2)]C[Trp(5-F)][X1][Val(3-OH)][dK](DOTA)-OH; disulfide 3-11) | < 1 |  |
| CC(=O)N[C@@H](CCC(C)C)C(=O)N[C@H](C(=O)N[C@H]1CSSC[C@@H](C(=O)N[C@@H](Cc2c[nH]c3ccc(F)cc23)C(=O)N[C@@H](Cc2ccccc2)C(=O)N(C)[C@@H](CO)C(=O)N[C@H](CCCCNC(=O)CN2CCN(CC(=O)O)CCN(CC(=O)O)CCN(CC(=O)O)CC2)C(N)=O)NC(=O)[C@H](Cc2ccc(O)cc2)NC(=O)[C@H](C(C)C)NC(=O)[C@H](CC(=O)O)NC(=O)[C@H](Cc2ccc(O)cc2)NC(=O)[C@H](CC2CCNCC2)NC(=O)CNC(=O)[C@H](C(C)C)NC1=O)C1CCOCC1 [compound 213, Ac-hLeu-ThpG-C-V-G-PipAla-Y-D-V-Y-C-5FW-F-NMeSer-dLys(DOTA)-CONH2] (Ac-[hLeu][Gly(4-THP)]CVG[Ala(piperidin-4-yl)]YDVYC[Trp(5-F)]F[NMeS][dK](DOTA)-NH2; disulfide 3-11) |  | 100 to 300 |
| CC(=O)N[C@@H](CCC(C)C)C(=O)N[C@@H](Cc1ccc(O)cc1)C(=O)N[C@H]1CSSC[C@@H](C(=O)N[C@@H](Cc2c[nH]c3ccc(F)cc23)C(=O)N[C@@H](Cc2cccc(O)c2)C(=O)N[C@H](C(=O)N[C@H](CCCCNC(=O)CN2CCN(CC(=O)O)CCN(CC(=O)O)CCN(CC(=O)O)CC2)C(=O)O)C(C)(C)O)NC(=O)[C@H](Cc2ccc(O)cc2)NC(=O)[C@H](C(C)C)NC(=O)[C@H](CC(=O)O)NC(=O)[C@H](CC2CCOCC2)NC(=O)[C@H](CC2CCNCC2)NC(=O)CNC(=O)[C@H](C(C)(C)C)NC1=O [compound 431, Ac-hLeu-Y-C-Tbg-G-PipAla-ThpA-D-V-Y-C-5FW-3OHPhe-hydroxyVal-dLys(DOTA)-COOH] (Ac-[hLeu]YC[Tle]G[Ala(piperidin-4-yl)][Ala(4-THP)]DVYC[Trp(5-F)][mTyr][Val(3-OH)][dK](DOTA)-OH; disulfide 3-11) | 1 to 10 |  |
